In patent US8367840B2, “Composition for treating infectious diseases caused by Helicobacter” (Universidad de Zaragoza, priority 2007, dated 2013):

Assays:
[1] = target: T1, flavodoxin of H. pylori (Helicobacter pylori, UniProt O25776); test: Binding to flavodoxin by isothermal titration calorimetry (ITC); settings: 50 mM EPPS buffer, pH 9, 7% DMSO, protein around 20 μM, read-out: affinity for flavodoxin
T1 construct: made in house; host or cells: E. coli BL21
Method: The specific binding of the inhibitors of the present invention to flavodoxin of H. pylori was confirmed by isothermal titration calorimetry (ITC). This technique not only measures the affinity of each compound for the target protein, but also determines the contribution of the enthalpic and entropic components of binding.
The binding experiments were carried out in 50 mM EPPS buffer, pH 9 with 7% DMSO, with the inhibitor in the injection syringe at a concentration of 300-500 μM, and the protein around 20 μM in the measurement cell.

[2] = target: T2, H. pylori flavodoxin (Helicobacter pylori, UniProt O25776); test: Inhibition of the pyruvate/PFOR/flavodoxin/FqrB/NADP+ electron transfer reaction (NADPH formation at 340 nm); assay type: biochemical; settings: 50 μM compound; anaerobic; 10 μM Fld, 0.09 mg/ml PFOR, 0.15 μM FqrB; FIG. 1
T2 construct: made in house; host or cells: E. coli BL21 (flavodoxin, pET28a); E. coli JVQ2 (PFOR, pBS(KS)); E. coli BL21(DE3) (FqrB, pET29b)
T2 sequence (O25776 1-164): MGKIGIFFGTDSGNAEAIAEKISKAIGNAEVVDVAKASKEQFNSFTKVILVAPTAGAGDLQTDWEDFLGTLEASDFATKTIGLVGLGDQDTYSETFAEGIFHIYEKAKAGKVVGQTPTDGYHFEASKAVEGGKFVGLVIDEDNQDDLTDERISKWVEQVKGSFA
From the text: Measurement of the absorbance (A) (AU is the unit of absorbance) at 340 nm against time (t) in seconds (s).
Flavodoxin is an essential protein for Helicobacter pylori survival as it participates in a fundamental reaction for obtaining energy from the oxidative decarboxylation of pyruvate. In this reaction, flavodoxin transfers electrons between the PFOR enzyme and the FqrB enzyme, which releases them to NADP^+.
The sequential reaction of electron transfer between pyruvate, PFOR, flavodoxin, FqrB and NADP^+ (activity assay) was followed spectroscopically by the appearance of the signal at 340 nm with the formation of NADPH. The reaction mixture contained 100 mM potassium phosphate pH 7, 10 mM pyruvate, 0.18 mM CoA, 1 mM MgCl, 0.3 mM NADP^+, 0.09 mg/ml PFOR, 10 μM Fld and 0.15 μM FqrB. The mixture, except CoA, was placed in a cuvette specially designed for anaerobic conditions. Oxygen was removed by means of 5 minute cycles with alternate flows of vacuum and argon. The reaction was started by the addition of 0.18 mM coenzyme A (CoA) that was held in a compartment inside the same cuvette. The reaction completed 15 minutes after adding the CoA reagent.
The inhibition assays were carried out in the same conditions as the activity assays previously described, adding an additional 50 μM of the disclosed compound of the general formula shown in (II) to the reaction cuvette.

SMILES: COc1ccc(CSc2ccc([N+](=O)[O-])c3nonc23)cc1 [formula (II)]
- Kd [1]: 3 µM
- inhibition of NADPH formation (product formation curve, absorbance at 340 nm) [2]: almost total
